Patent US12662451B2, “Chemical compounds and uses thereof” (GLAXOSMITHKLINE INTELLECTUAL PROPERTY (NO.4) LIMITED, priority 2023, dated 2026)
Read-outs that look alike come from different tables or passages of the source.

What was measured:
[1] = tested on: SW48 human colorectal cancer cells; assay: Calculated free drug potency in SW48 cell assay, corrected with media free fraction (Example C); assay type: cell-based; details: Homo sapiens, SW48, SW48 pCC50 corrected with measured free fraction in cell assay media
Method in brief: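 Free drug potency derives from correcting SW48 assay concentrations with the unbound fraction in medium. That fraction came from RED against pH 7.4 PBS, 1 μM nominal compound, 4 h at 37 °C, quantified by LC-MS/MS peak area ratios at T=240 versus T=0 min.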

[2] = Cell culture media unbound percentage and stability by rapid equilibrium dialysis (Example C); assay type: in vitro ADME; details: bovine, cell assay medium (RPMI-1640 with 10% fetal bovine serum), pH 7.4, rapid equilibrium dialysis, 4 hours at 37° C., read-out: Cell Culture Media Binding (% unbound)
Method in brief: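 Percent unbound in cell assay medium came from the LC-MS/MS receiver:donor peak area ratio, with stability taken as the 240 min over 0 min ratio. Set-up: 1 μM nominal compound in medium dialysed against pH 7.4 PBS (100 mM phosphate, 150 mM NaCl), 4 h, 37° C, shaken, in triplicate.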

[3] = target: T1, recombinant full-length WRN protein (1-1432) (Homo sapiens, UniProt Q14191); assay: WRN unwinding activity, fluorogenic 384-well assay (Example A); assay type: biochemical; details: WRN unwinding activity, 4 hr; Table 2; read-out: 4 hr UNW pIC50 (converted)
T1 construct: recombinant full-length WRN protein (1-1432)
T1 sequence (Q14191 whole entry): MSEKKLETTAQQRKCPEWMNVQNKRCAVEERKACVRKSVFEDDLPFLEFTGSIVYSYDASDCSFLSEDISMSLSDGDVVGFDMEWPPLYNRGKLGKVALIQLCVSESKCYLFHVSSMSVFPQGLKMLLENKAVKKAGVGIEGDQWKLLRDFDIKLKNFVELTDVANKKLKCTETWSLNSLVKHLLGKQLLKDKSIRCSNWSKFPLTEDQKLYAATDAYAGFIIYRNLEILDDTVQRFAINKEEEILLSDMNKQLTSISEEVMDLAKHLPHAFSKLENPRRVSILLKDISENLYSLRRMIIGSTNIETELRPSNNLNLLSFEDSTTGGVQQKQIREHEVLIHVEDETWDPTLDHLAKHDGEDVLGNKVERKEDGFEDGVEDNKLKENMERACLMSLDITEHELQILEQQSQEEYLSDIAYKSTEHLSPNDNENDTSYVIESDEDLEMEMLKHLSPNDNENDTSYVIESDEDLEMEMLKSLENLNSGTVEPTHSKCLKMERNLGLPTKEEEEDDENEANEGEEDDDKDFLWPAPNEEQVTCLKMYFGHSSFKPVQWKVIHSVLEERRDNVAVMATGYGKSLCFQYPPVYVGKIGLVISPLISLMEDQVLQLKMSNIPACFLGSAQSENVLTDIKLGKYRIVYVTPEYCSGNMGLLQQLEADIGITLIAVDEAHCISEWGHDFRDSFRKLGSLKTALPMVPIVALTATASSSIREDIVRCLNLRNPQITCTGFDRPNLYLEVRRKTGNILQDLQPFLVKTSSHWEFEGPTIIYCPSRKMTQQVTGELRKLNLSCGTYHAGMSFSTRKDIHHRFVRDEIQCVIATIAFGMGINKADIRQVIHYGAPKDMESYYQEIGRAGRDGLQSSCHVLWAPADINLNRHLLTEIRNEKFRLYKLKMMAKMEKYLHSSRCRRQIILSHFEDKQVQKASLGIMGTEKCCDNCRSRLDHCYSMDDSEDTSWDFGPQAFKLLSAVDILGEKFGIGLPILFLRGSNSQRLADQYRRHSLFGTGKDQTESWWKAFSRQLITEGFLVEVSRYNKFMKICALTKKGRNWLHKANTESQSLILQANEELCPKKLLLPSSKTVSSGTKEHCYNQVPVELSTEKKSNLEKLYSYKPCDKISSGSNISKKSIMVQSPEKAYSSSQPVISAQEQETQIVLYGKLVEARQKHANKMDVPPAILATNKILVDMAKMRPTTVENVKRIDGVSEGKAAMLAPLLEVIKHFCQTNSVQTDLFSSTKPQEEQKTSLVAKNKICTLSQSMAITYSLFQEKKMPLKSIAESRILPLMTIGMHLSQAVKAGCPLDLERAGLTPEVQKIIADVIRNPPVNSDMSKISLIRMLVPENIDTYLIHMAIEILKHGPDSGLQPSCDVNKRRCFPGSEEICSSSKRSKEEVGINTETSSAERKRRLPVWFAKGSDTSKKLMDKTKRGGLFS
Method in brief: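 Read-out is end-point unwinding of a fluorophore/quencher duplex (ex 525, em 598 nm) after 60 min with 200 μM ATP and 12 nM DNA (2× stocks), EDTA stop. Compound first sat 4 h with 200 pM WRN (2× stock) in pH 8.0 Tris buffer; four-parameter fit gives pIC50.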

[4] = tested on: SW48 human colorectal cancer cells (MSI-H cancer cells); assay: SW48 cell viability, CellTiter-Glo, 120 hours (Example B); details: for CC50: Homo sapiens
[5] = SW48, 120 h, read-out: SW48 pCC50, SW48 cell viability, 120 hours incubation (converted), Table 2
[6] = SW48, read-out: SW48 pCC50, measured potency from Example B, as repeated in Table 3 (converted)

SMILES | fraction unbound at 4 h, 1 µM [2] | IC50 [3] | CC50 [1] | CC50 [4, 5] | CC50 [4, 6] | SW48 pCC50 ([4]; SW48 cell viability, 120 hours incubation, Table 2)
Cc1nc2cc(S(=O)(=O)N(C)c3ccc([C@@H]4C[C@H](N5CC[C@H](F)C5)C[C@H](C(=O)Nc5ccc(C(F)(F)F)cc5F)[C@H]4C(=O)O)cc3)ccc2n1C (stereo in doubt) [Example 378, rel-(1R*,2R*,4R*,6S*)-2-((2-fluoro-4-(trifluoromethyl)phenyl)carbamoyl)-4-((S)-3-fluoropyrrolidin-1-yl)-6-(4-((N,1,2-trimethyl-1H-benzo[d]imidazole)-5-sulfonamido)phenyl)cyclohexane-1-carboxylic acid] | 0.208 | 50.1 nM | 832 nM | 3980 nM | 3980 nM | –
Cc1nc2cc(S(=O)(=O)N(C)c3ccc([C@H]4C[C@H](N5CC[C@H](F)C5)C[C@@H](C(=O)Nc5ccc(C(F)(F)F)cc5F)[C@@H]4C(=O)O)cc3)ccc2n1C (stereo in doubt) [Example 380, rel-(1R*,2R*,4S*,6S*)-2-((2-fluoro-4-(trifluoromethyl)phenyl)carbamoyl)-4-((S)-3-fluoropyrrolidin-1-yl)-6-(4-((N,1,2-trimethyl-1H-benzo[d]imidazole)-5-sulfonamido)phenyl)cyclohexane-1-carboxylic acid] | 0.0334 | 39.8 nM | 331 nM | 10000 nM | – | –
Cc1nc2cc(S(=O)(=O)N(C)c3ccc([C@@H]4C[C@H](N5CC[C@@H](F)C5)C[C@H](C(=O)Nc5ccc(C(F)(F)F)cc5F)[C@H]4C(=O)O)cc3)ccc2n1C (stereo in doubt) [Example 381, rel-(1R*,2R*,4R*,6S*)-2-((2-fluoro-4-(trifluoromethyl)phenyl)carbamoyl)-4-((R)-3-fluoropyrrolidin-1-yl)-6-(4-((N,1,2-trimethyl-1H-benzo[d]imidazole)-5-sulfonamido)phenyl)cyclohexane-1-carboxylic acid] | 0.308 | 79.4 nM | 2450 nM | 7940 nM | 7940 nM | –
Cc1nc2cc(S(=O)(=O)N(C)c3ccc([C@H]4C[C@@H](N5CC[C@@H](F)C5)C[C@@H](C(=O)Nc5ccc(C(F)(F)F)cc5F)[C@@H]4C(=O)O)cc3)ccc2n1C (stereo in doubt) [Example 382, rel-(1R*,2R*,4R*,6S*)-2-((2-fluoro-4-(trifluoromethyl)phenyl)carbamoyl)-4-((R)-3-fluoropyrrolidin-1-yl)-6-(4-((N,1,2-trimethyl-1H-benzo[d]imidazole)-5-sulfonamido)phenyl)cyclohexane-1-carboxylic acid] | 0.136 | 1.58 nM | 8.51 nM | 63.1 nM | 63.1 nM | –
Cc1nc2cc(S(=O)(=O)N(C)c3ccc([C@H]4C[C@H](N5CC[C@@H](F)C5)C[C@@H](C(=O)Nc5ccc(C(F)(F)F)cc5F)[C@@H]4C(=O)O)cc3)ccc2n1C (stereo in doubt) [Example 383, rel-(1R*,2R*,4S*,6S*)-2-((2-fluoro-4-(trifluoromethyl)phenyl)carbamoyl)-4-((R)-3-fluoropyrrolidin-1-yl)-6-(4-((N,1,2-trimethyl-1H-benzo[d]imidazole)-5-sulfonamido)phenyl)cyclohexane-1-carboxylic acid] | 0.0589 | 7.94 nM | 468 nM | 7940 nM | 7940 nM | –
Cc1cc(N(C)S(=O)(=O)c2ccc3c(c2)nc(C)n3C)ccc1[C@H]1CCC[C@@H](C(=O)Nc2ccc(C(F)(F)F)cc2F)[C@@H]1C(=O)O (stereo in doubt) [Example 386, rel-(1R,2R,6S)-2-((2-fluoro-4-(trifluoromethyl)phenyl)carbamoyl)-6-(2-methyl-4-((N,1,2-trimethyl-1H-benzo[d]imidazole)-5-sulfonamido)phenyl)cyclohexane-1-carboxylic acid] | 0.1 | 3.98 nM | 200 nM | 2000 nM | 2000 nM | –
CN(c1ccc([C@H]2CCC[C@@H](C(=O)Nc3ccc(C(F)(F)F)cc3F)[C@@H]2C(=O)O)cc1)S(=O)(=O)c1cc(I)c2occc2c1 [Example 94, (1R,2R,6S)-2-((2-fluoro-4-(trifluoromethyl)phenyl)carbamoyl)-6-(4-((7-iodo-N-methylbenzofuran)-5-sulfonamido)phenyl)cyclohexane-1-carboxylic acid] | 0.0014 | 50.1 nM | 5.62 nM | – | 3980 nM | 5.4
CN(C)Cc1cccc(S(=O)(=O)N(C)c2ccc([C@H]3CCC[C@@H](C(=O)Nc4ccc(C(F)(F)F)cc4F)[C@@H]3C(=O)O)cc2)c1 [Example 97] | 0.241 | 2 nM | 240 nM | 1000 nM | 1000 nM | –
CN(c1ccc([C@H]2CCC[C@@H](C(=O)Nc3ccc(C(F)(F)F)cc3F)[C@@H]2C(=O)O)cc1)S(=O)(=O)c1ccc2scnc2c1 [Example 101, (1R,2R,6S)-2-((2-fluoro-4-(trifluoromethyl)phenyl)carbamoyl)-6-(4-(N-methylbenzo[d]thiazole-5-sulfonamido)phenyl)cyclohexane-1-carboxylic acid] | 0.0349 | 5.01 nM | 43.7 nM | 1260 nM | 1260 nM | –
CN(c1ccc([C@H]2CCC[C@@H](C(=O)Nc3ccc(C(F)(F)F)cc3F)[C@@H]2C(=O)O)cc1)S(=O)(=O)c1ccc2ccn(C)c2c1 [Example 110, (1R,2S,6R)-2-(4-((N,1-dimethyl-1H-indole)-6-sulfonamido)phenyl)-6-((2-fluoro-4-(trifluoromethyl)phenyl)carbamoyl)cyclohexane-1-carboxylic acid] | 0.0085 | 3.98 nM | 10.7 nM | 1260 nM | 1260 nM | –

More lines, main results first:

fraction unbound at 4 h, 1 µM [2] | IC50 [3] | SMILES | CC50 [1] | CC50 [4, 5] | CC50 [4, 6] | SW48 pCC50 ([4]; SW48 cell viability, 120 hours incubation, Table 2)
0.071 | 5.01 nM | Cc1nc2cc(S(=O)(=O)N(C)c3ccc([C@H]4C[C@@H](N5CC[C@H](F)C5)C[C@@H](C(=O)Nc5ccc(C(F)(F)F)cc5F)[C@@H]4C(=O)O)cc3)ccc2n1C (stereo in doubt) [Example 377, rel-(1R*,2R*,4R*,6S*)-2-((2-fluoro-4-(trifluoromethyl)phenyl)carbamoyl)-4-((S)-3-fluoropyrrolidin-1-yl)-6-(4-((N,1,2-trimethyl-1H-benzo[d]imidazole)-5-sulfonamido)phenyl)cyclohexane-1-carboxylic acid] | 8.91 nM | 126 nM | 126 nM | –
0.0993 | 1.58 nM | Cc1nc2cc(S(=O)(=O)N(C)c3ccc([C@H]4C[C@H]5COC[C@H]5[C@@H](C(=O)Nc5ccc(C(F)(F)F)cc5F)[C@@H]4C(=O)O)cc3)ccc2n1C (stereo in doubt) [Example 392, rel-(3aR,4R,5R,6S,7aR)-4-((2-fluoro-4-(trifluoromethyl)phenyl)carbamoyl)-6-(4-((N,1,2-trimethyl-1H-benzo[d]imidazole)-5-sulfonamido)phenyl)octahydroisobenzofuran-5-carboxylic acid] | 25.1 nM | 251 nM | 251 nM | –
0.0499 | 3.98 nM | O=C(O)[C@@H]1[C@@H](c2ccc(-c3cnsc3)cc2)CCC[C@H]1C(=O)Nc1ccc(C(F)(F)F)cc1F [Example 16, (1R,2R,6S)-2-((2-fluoro-4-(trifluoromethyl)phenyl)carbamoyl)-6-(4-(isothiazol-4-yl)phenyl)cyclohexane-1-carboxylic acid] | 200 nM | 3980 nM | 3980 nM | –
0.0245 | 5.01 nM | CN(c1ccc([C@H]2CCC[C@@H](C(=O)Nc3ccc(C(F)(F)F)cc3F)[C@@H]2C(=O)O)cc1)S(=O)(=O)c1ccc2c(ccn2C)c1 [Example 107, (1R,2S,6R)-2-(4-((N, 1-dimethyl-1H-indole)-5-sulfonamido)phenyl)-6-((2-fluoro-4-(trifluoromethyl)phenyl)carbamoyl)cyclohexane-1-carboxylic acid] | 19.5 nM | 794 nM | 794 nM | –
0.0829 | 1 nM | CN(c1ccc([C@H]2CCC[C@@H](C(=O)Nc3ccc(C(F)(F)F)cc3F)[C@@H]2C(=O)O)cc1)S(=O)(=O)c1ccccc1 [Example 109, (1R,2R,6S)-2-((2-fluoro-4-(trifluoromethyl)phenyl)carbamoyl)-6-(4-(N-methylphenylsulfonamido)phenyl)cyclohexane-1-carboxylic acid] | 105 nM | 1260 nM | 1260 nM | –
